Holding throughout (type): cell-based
The target of test [1] is Met (phospho-Met, HGF-stimulated PC-3 prostate cancer cells) (Homo sapiens (Human), UniProt P08581). Nature of the test: Met autophosphorylation ELISA in PC-3 cells (Example F). As to conditions: cellular activity; Met autophosphorylation ELISA in PC-3 cells; read-out: c-Met IC50. The gist of the method: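 PC-3 cells, serum-starved 3 h, were treated with compounds (8-point dose curve, 0.3% DMSO final) for 1 h, then stimulated with 100 ng/mL recombinant human HGF for 10 min. Lysate phospho-Met (panTyr) was quantified by sandwich ELISA; IC50 from 4-parameter logistic fit.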
Met (phospho-Met, HGF-stimulated PC-3 prostate cancer cells), sequence (P08581 25-1390): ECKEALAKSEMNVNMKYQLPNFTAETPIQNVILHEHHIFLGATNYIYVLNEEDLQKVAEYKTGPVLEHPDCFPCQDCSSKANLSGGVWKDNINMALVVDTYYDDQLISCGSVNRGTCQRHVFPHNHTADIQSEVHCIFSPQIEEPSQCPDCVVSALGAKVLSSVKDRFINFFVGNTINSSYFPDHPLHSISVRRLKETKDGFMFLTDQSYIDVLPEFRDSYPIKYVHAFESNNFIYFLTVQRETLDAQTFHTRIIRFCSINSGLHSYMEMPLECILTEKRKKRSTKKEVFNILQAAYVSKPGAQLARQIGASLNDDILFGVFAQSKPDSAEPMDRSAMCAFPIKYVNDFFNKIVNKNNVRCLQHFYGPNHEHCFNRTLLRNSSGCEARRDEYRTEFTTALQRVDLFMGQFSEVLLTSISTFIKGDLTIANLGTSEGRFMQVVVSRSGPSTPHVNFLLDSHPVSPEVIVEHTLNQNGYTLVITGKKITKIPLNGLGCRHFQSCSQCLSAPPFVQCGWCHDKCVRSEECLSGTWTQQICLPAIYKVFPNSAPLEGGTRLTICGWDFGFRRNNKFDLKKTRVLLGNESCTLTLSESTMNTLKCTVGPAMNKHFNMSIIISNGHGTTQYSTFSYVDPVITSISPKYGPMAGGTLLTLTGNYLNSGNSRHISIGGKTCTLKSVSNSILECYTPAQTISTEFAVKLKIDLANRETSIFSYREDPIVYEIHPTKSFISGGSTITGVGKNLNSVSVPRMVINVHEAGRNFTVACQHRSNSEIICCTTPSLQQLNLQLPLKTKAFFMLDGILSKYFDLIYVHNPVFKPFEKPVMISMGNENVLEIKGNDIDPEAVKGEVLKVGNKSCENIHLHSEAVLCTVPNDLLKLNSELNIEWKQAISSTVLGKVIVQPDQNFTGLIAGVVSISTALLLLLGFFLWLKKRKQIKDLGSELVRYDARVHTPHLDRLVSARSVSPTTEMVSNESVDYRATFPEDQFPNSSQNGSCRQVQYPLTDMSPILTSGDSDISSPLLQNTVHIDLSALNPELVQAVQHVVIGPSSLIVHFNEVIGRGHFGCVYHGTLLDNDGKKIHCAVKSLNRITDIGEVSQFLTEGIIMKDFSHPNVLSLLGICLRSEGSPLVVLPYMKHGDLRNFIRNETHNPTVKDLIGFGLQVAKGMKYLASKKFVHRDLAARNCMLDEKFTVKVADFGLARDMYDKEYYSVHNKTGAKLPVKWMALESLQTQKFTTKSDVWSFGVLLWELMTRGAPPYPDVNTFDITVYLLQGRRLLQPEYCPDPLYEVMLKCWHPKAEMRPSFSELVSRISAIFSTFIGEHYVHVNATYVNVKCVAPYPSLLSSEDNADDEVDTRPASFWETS
Background: In an ELISA, binding on a coated surface is turned into a signal by an enzyme label.

The target of test [2] is KDR (phospho-KDR, VEGF165-stimulated HUVEC cells) (Homo sapiens (Human), UniProt P35968). Nature of the test: KDR autophosphorylation ELISA in HUVEC cells (Example G). To be noted: cellular activity; KDR autophosphorylation ELISA in HUVEC cells. In outline: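 Read-out is phospho-KDR measured by ELISA in lysates of VEGF165-stimulated (100 ng/mL, 5 min) HUVEC that were serum-starved 24 h and then pre-exposed 1 h to compound across 8 doses in 0.3% DMSO. Unstimulated lysates defined 0% and stimulated vehicle lysates 100% activity; IC50 values come from 4-parameter logistic regression.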
KDR (phospho-KDR, VEGF165-stimulated HUVEC cells), sequence (P35968 20-1356): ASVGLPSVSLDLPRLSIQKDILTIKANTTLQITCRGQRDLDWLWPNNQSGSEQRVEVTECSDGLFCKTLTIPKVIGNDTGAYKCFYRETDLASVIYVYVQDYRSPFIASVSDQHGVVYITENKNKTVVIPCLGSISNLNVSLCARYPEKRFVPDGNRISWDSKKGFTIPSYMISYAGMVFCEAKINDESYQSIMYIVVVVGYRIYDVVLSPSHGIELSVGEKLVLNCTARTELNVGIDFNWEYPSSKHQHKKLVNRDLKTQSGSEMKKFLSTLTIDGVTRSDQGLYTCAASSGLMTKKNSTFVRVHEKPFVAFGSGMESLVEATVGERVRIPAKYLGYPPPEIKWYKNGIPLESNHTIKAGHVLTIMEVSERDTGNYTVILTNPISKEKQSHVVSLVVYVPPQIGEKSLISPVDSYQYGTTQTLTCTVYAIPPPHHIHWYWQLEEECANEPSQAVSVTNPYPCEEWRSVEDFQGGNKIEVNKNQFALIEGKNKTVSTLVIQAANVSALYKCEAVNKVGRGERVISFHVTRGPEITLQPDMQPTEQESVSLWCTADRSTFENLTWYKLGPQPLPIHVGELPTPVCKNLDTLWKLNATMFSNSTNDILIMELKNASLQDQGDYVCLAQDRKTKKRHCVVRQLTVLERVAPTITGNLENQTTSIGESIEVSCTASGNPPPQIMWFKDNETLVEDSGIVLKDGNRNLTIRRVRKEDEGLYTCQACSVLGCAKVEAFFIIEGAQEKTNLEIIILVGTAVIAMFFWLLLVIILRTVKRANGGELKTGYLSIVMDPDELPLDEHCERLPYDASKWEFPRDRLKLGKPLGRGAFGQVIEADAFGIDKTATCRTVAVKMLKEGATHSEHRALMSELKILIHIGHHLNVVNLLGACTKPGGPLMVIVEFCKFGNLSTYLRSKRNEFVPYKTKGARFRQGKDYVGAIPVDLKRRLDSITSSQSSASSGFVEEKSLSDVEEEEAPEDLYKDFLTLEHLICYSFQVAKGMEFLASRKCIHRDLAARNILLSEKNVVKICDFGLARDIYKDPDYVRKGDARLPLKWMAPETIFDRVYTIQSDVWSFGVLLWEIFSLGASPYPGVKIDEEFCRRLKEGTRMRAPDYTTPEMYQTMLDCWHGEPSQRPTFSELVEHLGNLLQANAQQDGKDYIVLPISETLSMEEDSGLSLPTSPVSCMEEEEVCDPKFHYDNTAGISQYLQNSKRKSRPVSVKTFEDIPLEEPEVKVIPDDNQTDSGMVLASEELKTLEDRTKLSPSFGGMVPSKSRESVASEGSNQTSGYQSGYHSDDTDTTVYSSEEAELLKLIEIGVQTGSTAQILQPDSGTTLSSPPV

Test [3] deals with Mer (phospho-Mer, MERTK-transfected 293A cells) (Homo sapiens (Human), UniProt Q12866). Put plainly: Mer autophosphorylation ELISA in transient transfected 293A cells (Example H). To be noted: cellular activity; Mer autophosphorylation ELISA in transient transfected 293A cells. In outline: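 IC50 from 4-parameter logistic fit of phospho-Mer levels, quantified by ELISA against a phospho-Mer standard in lysates of MERTK-transfected 293A cells. Cells exposed 1 h to 8-point serial dilutions, serum-free, 0.3% DMSO; controls: DMSO (100%) and reference inhibitor (0%).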
Mer (phospho-Mer, MERTK-transfected 293A cells), sequence (Q12866 21-999): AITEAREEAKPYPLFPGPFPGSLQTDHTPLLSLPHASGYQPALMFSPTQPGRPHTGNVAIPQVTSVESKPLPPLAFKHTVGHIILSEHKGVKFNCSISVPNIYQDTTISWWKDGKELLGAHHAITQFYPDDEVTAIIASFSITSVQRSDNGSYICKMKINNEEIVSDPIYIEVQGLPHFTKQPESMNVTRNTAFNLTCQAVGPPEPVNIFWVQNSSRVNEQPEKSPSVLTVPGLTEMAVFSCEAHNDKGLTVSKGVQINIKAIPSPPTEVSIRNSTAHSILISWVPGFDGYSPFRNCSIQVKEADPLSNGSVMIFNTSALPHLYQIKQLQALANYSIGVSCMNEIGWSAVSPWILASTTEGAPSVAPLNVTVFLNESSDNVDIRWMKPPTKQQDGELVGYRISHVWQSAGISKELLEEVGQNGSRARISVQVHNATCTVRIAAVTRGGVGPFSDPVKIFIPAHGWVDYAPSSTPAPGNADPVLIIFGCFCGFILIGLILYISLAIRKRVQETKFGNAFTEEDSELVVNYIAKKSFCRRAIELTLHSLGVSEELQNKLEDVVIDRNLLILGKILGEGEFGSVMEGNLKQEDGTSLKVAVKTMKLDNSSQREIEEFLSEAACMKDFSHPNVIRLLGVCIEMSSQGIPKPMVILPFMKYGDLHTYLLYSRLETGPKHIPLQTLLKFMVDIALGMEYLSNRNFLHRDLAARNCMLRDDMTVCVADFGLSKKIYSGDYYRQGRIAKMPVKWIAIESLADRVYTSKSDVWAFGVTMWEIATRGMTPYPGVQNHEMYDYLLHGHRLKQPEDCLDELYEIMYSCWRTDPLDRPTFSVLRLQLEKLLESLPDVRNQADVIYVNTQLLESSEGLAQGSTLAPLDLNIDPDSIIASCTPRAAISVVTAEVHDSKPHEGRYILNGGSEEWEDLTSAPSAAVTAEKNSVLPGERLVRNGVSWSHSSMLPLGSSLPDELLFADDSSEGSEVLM

Here are results for 21 molecules from patent publication US12371428B2 (Exelixis, Inc., priority 2019, dated 2025).

The IC50 is the concentration needed to halve the response being measured.

On to `COc1cc2nccc(Oc3ccc(NC(=O)c4cc(C(C)C)c(C)n(-c5ccc(F)cc5)c4=O)cc3F)c2nc1OC` [Compound 368, N-[4-[(6,7-dimethoxy-1,5-naphthyridin-4-yl)oxy]-3-fluorophenyl]-1-(4-fluorophenyl)-6-methyl-2-oxo-5-propan-2-ylpyridine-3-carboxamide], for which the IC50 in test [1], in test [2] and in test [3] was < 100 nM each time.

In the case of `CCOc1c(C(=O)Nc2ccc(Oc3ccnc4cc(OC)c(OC)nc34)c(F)c2)c(=O)c(-c2ccc(F)cc2)c(C)n1C` [Compound 369, N-[4-[(6,7-dimethoxy-1,5-naphthyridin-4-yl)oxy]-3-fluorophenyl]-2-ethoxy-5-(4-fluorophenyl)-1,6-dimethyl-4-oxopyridine-3-carboxamide], the IC50 in test [1], in test [2] and in test [3] was < 100 nM in each case.

For the molecule `COc1cc2nccc(Oc3ccc(NC(=O)c4cc(C)c(C)n(-c5ccc(F)cc5)c4=O)cc3F)c2nc1OC` [Compound 370, N-[4-[(6,7-dimethoxy-1,5-naphthyridin-4-yl)oxy]-3-fluorophenyl]-1-(4-fluorophenyl)-5,6-dimethyl-2-oxopyridine-3-carboxamide], the IC50 in test [1], in test [2] and in test [3] was < 100 nM each time.

In the case of `Cc1ncc(C(=O)Nc2ccc(Oc3ccnc4cc(-c5cnn(C(F)F)c5)ccc34)cc2)c(O)c1-c1ccc(F)cc1` [Compound 377, N-[4-[7-[1-(difluoromethyl)pyrazol-4-yl]quinolin-4-yl]oxyphenyl]-5-(4-fluorophenyl)-4-hydroxy-6-methylpyridine-3-carboxamide], the IC50 in test [1], in test [2] and in test [3] was < 100 nM in each case.

In the case of `COc1ccc2nccc(Oc3ccc(NC(=O)c4ncc(C)n(-c5ccc(F)cc5)c4=O)cc3)c2n1` [Compound 378, 4-(4-fluorophenyl)-N-[4-[(6-methoxy-1,5-naphthyridin-4-yl)oxy]phenyl]-5-methyl-3-oxopyrazine-2-carboxamide], the IC50 in test [1] is < 100 nM; in test [2], > 300 nM; in test [3], < 100 nM.

As for `COc1cc2nccc(Oc3ccc(NC(=O)c4nccn(-c5ccc(F)cc5)c4=O)cc3F)c2nc1OC` [Compound 379, N-[4-[(6,7-dimethoxy-1,5-naphthyridin-4-yl)oxy]-3-fluorophenyl]-4-(4-fluorophenyl)-3-oxopyrazine-2-carboxamide], the IC50 in test [1], in test [2] and in test [3] was < 100 nM each time.

For the molecule `COc1ccc2nccc(Oc3ccc(NC(=O)c4nccn(-c5ccc(F)cc5)c4=O)cc3F)c2n1` [Compound 380, N-[3-fluoro-4-[(6-methoxy-1,5-naphthyridin-4-yl)oxy]phenyl]-4-(4-fluorophenyl)-3-oxopyrazine-2-carboxamide], the IC50 in test [1] was < 100 nM; in test [2], > 300 nM; in test [3] it was < 100 nM.

On to `COc1cnc2c(Oc3ccc(NC(=O)c4nccn(-c5ccc(F)cc5)c4=O)cc3F)ccnc2c1` [Compound 381, N-[3-fluoro-4-[(7-methoxy-1,5-naphthyridin-4-yl)oxy]phenyl]-4-(4-fluorophenyl)-3-oxopyrazine-2-carboxamide], for which the IC50 is < 100 nM in test [1], > 300 nM in test [2] and < 100 nM in test [3].

As for `COc1cnc2c(Oc3ccc(NC(=O)c4nccn(-c5ccc(F)cc5)c4=O)cc3)ccnc2c1` [Compound 382, 4-(4-fluorophenyl)-N-[4-[(7-methoxy-1,5-naphthyridin-4-yl)oxy]phenyl]-3-oxopyrazine-2-carboxamide], the IC50 was < 100 nM in test [1], > 300 nM in test [2] and < 100 nM in test [3].

Consider `COc1ccc2nccc(Oc3ccc(NC(=O)c4nccn(-c5ccc(F)cc5)c4=O)cc3)c2n1` [Compound 383, 4-(4-fluorophenyl)-N-[4-[(6-methoxy-1,5-naphthyridin-4-yl)oxy]phenyl]-3-oxopyrazine-2-carboxamide], for which the IC50 was < 100 nM in test [1], > 300 nM in test [2] and < 100 nM in test [3].

As to `COc1cc2nccc(Oc3ccc(NC(=O)c4nccn(-c5ccc(F)cc5)c4=O)cc3)c2nc1OC` [Compound 384, N-[4-[(6,7-dimethoxy-1,5-naphthyridin-4-yl)oxy]phenyl]-4-(4-fluorophenyl)-3-oxopyrazine-2-carboxamide], the IC50 in test [1], in test [2] and in test [3] was < 100 nM each time.

With `COc1cc2nccc(Oc3ccc(NC(=O)c4ccnn(-c5ccc(F)cc5)c4=O)cc3F)c2nc1OC` [Compound 386, N-[4-[(6,7-dimethoxy-1,5-naphthyridin-4-yl)oxy]-3-fluorophenyl]-2-(4-fluorophenyl)-3-oxopyridazine-4-carboxamide], the IC50 in test [1], in test [2] and in test [3] was < 100 nM in each case.

Regarding `COc1cc2nccc(Oc3ccc(NC(=O)c4cn(C)c(C)c(-c5ccc(F)cc5)c4=O)cc3Cl)c2nc1OC` [Compound 388, N-[3-chloro-4-[(6,7-dimethoxy-1,5-naphthyridin-4-yl)oxy]phenyl]-5-(4-fluorophenyl)-1,6-dimethyl-4-oxopyridine-3-carboxamide], the half-inhibitory concentration (IC50) in test [1], in test [2] and in test [3] was < 100 nM throughout.

On to `COc1cc2nccc(Oc3ccc(NC(=O)c4cn(C)c(C)c(-c5ccc(F)cc5)c4=O)c(F)c3)c2nc1OC` [Compound 389, N-[4-[(6,7-dimethoxy-1,5-naphthyridin-4-yl)oxy]-2-fluorophenyl]-5-(4-fluorophenyl)-1,6-dimethyl-4-oxopyridine-3-carboxamide], for which the IC50 in test [1] is < 100 nM; in test [2], > 300 nM; in test [3] it was < 100 nM.

With `COc1cc2nccc(Oc3ccc(NC(=O)c4cn(C)c(C)c(-c5ccc(F)cc5)c4=O)c(F)c3F)c2nc1OC` [Compound 390, N-[4-[(6,7-dimethoxy-1,5-naphthyridin-4-yl)oxy]-2,3-difluorophenyl]-5-(4-fluorophenyl)-1,6-dimethyl-4-oxopyridine-3-carboxamide], the IC50 in test [1], in test [2] and in test [3] was < 100 nM throughout.

Regarding `COc1cc2nccc(Oc3cc(F)c(NC(=O)c4cn(C)c(C)c(-c5ccc(F)cc5)c4=O)cc3F)c2nc1OC` [Compound 391, N-[4-[(6,7-dimethoxy-1,5-naphthyridin-4-yl)oxy]-2,5-difluorophenyl]-5-(4-fluorophenyl)-1,6-dimethyl-4-oxopyridine-3-carboxamide], the IC50 is < 100 nM in test [1], > 300 nM in test [2] and < 100 nM in test [3].

As to `COc1cc2nccc(Oc3c(F)cc(NC(=O)c4cn(C)c(C)c(-c5ccc(F)cc5)c4=O)cc3F)c2nc1OC` [Compound 392, N-[4-[(6,7-dimethoxy-1,5-naphthyridin-4-yl)oxy]-3,5-difluorophenyl]-5-(4-fluorophenyl)-1,6-dimethyl-4-oxopyridine-3-carboxamide], the IC50 in test [1] is < 100 nM; in test [2], > 300 nM; in test [3], < 100 nM.

As to `COc1cc2nccc(Oc3ccc(NC(=O)c4ncc(C)n(-c5ccc(F)cc5C)c4=O)cc3F)c2nc1OC` [Compound 393, N-[4-[(6,7-dimethoxy-1,5-naphthyridin-4-yl)oxy]-3-fluorophenyl]-4-(4-fluoro-2-methylphenyl)-5-methyl-3-oxopyrazine-2-carboxamide], the IC50 in test [1], in test [2] and in test [3] was < 100 nM in each case.

With `COc1ccc2nccc(Oc3ccc(NC(=O)c4ncc(C)n(-c5ccc(F)cc5C)c4=O)cc3F)c2n1` [Compound 394, N-[3-fluoro-4-[(6-methoxy-1,5-naphthyridin-4-yl)oxy]phenyl]-4-(4-fluoro-2-methylphenyl)-5-methyl-3-oxopyrazine-2-carboxamide], the 50% inhibitory concentration (IC50) in test [1] is < 100 nM; in test [2], > 300 nM; in test [3] it was < 100 nM.

`COc1cc2nccc(Oc3ncc(NC(=O)c4cn(C5CC5)cc(-c5ccc(F)cc5)c4=O)cc3F)c2cc1OC` [Compound 399, 1-cyclopropyl-N-[6-(6,7-dimethoxyquinolin-4-yl)oxy-5-fluoropyridin-3-yl]-5-(4-fluorophenyl)-4-oxopyridine-3-carboxamide]: the values for the IC50 in test [1], in test [2] and in test [3] were < 100 nM, > 300 nM and < 100 nM, respectively.

For the molecule `COc1cc2nccc(Oc3ncc(NC(=O)c4cn(C5CN(C)C5)cc(-c5ccc(F)cc5)c4=O)cc3F)c2cc1OC` [Compound 400, N-[6-(6,7-dimethoxyquinolin-4-yl)oxy-5-fluoropyridin-3-yl]-5-(4-fluorophenyl)-1-(1-methylazetidin-3-yl)-4-oxopyridine-3-carboxamide], the IC50 in test [1] was < 100 nM; in test [2], > 300 nM; in test [3], < 100 nM.
